# Experimental data taken from PubChem BioAssay (NCI).
#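 Compound exposure: 48 hours, 5 concentrations, 96-well plates. At the TGI there is no net growth.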
# Test system: HL-60(TB) leukemia
# Assay: NCI tumour cell line growth inhibition, 48 h
row,SMILES,TGI [µM]
1,CCN(C(=N)C#N)c1ccccc1,> 70.2
2,O=C(NO)C(=O)Nc1cc(Cl)ccc1Cl,> 100

# Test system: HOP-18 NSCLC
# Assay: NCI tumour cell line growth inhibition, 48 h
row,SMILES,TGI [µM]
1,COC(=O)C1Cc2c([nH]c3ccccc23)C(C2CCCCC2)N1 (stereo not drawn),> 100
2,CCN(C(=N)C#N)c1ccccc1,> 100
3,O=C1[C@@H]2C(c3cccc([N+](=O)[O-])c3)=NO[C@@H]2C(=O)N1c1ccc(Cc2ccc(N3C(=O)[C@H]4C(c5cccc([N+](=O)[O-])c5)=NO[C@H]4C3=O)cc2)cc1,> 100
4,O=C(NO)C(=O)Nc1cc(Cl)ccc1Cl,> 100

# Test system: HOP-62 NSCLC
# Assay: NCI tumour cell line growth inhibition, 48 h
row,SMILES,TGI [µM]
1,CCN(C(=N)C#N)c1ccccc1,> 100
2,O=C1[C@@H]2C(c3cccc([N+](=O)[O-])c3)=NO[C@@H]2C(=O)N1c1ccc(Cc2ccc(N3C(=O)[C@H]4C(c5cccc([N+](=O)[O-])c5)=NO[C@H]4C3=O)cc2)cc1,> 100
3,O=C(NO)C(=O)Nc1cc(Cl)ccc1Cl,> 100

# Test system: HOP-92 NSCLC
# Assay: NCI tumour cell line growth inhibition, 48 h
row,SMILES,TGI [µM]
1,COC(=O)C1Cc2c([nH]c3ccccc23)C(C2CCCCC2)N1 (stereo not drawn),> 100
2,CCN(C(=N)C#N)c1ccccc1,> 100
3,O=C1[C@@H]2C(c3cccc([N+](=O)[O-])c3)=NO[C@@H]2C(=O)N1c1ccc(Cc2ccc(N3C(=O)[C@H]4C(c5cccc([N+](=O)[O-])c5)=NO[C@H]4C3=O)cc2)cc1,> 100
4,O=C(NO)C(=O)Nc1cc(Cl)ccc1Cl,> 100

# Test system: HT29 colon
# Assay: NCI tumour cell line growth inhibition, 48 h
row,SMILES,TGI [µM]
1,COC(=O)C1Cc2c([nH]c3ccccc23)C(C2CCCCC2)N1 (stereo not drawn),> 100
2,CCN(C(=N)C#N)c1ccccc1,> 100
3,O=C1[C@@H]2C(c3cccc([N+](=O)[O-])c3)=NO[C@@H]2C(=O)N1c1ccc(Cc2ccc(N3C(=O)[C@H]4C(c5cccc([N+](=O)[O-])c5)=NO[C@H]4C3=O)cc2)cc1,> 100
4,O=C(NO)C(=O)Nc1cc(Cl)ccc1Cl,> 100

# Test system: IGROV1 ovarian
# Assay: NCI tumour cell line growth inhibition, 48 h
row,SMILES,TGI [µM]
1,COC(=O)C1Cc2c([nH]c3ccccc23)C(C2CCCCC2)N1 (stereo not drawn),> 100
2,CCN(C(=N)C#N)c1ccccc1,> 100
3,O=C1[C@@H]2C(c3cccc([N+](=O)[O-])c3)=NO[C@@H]2C(=O)N1c1ccc(Cc2ccc(N3C(=O)[C@H]4C(c5cccc([N+](=O)[O-])c5)=NO[C@H]4C3=O)cc2)cc1,> 100
4,O=C(NO)C(=O)Nc1cc(Cl)ccc1Cl,55.3

# Test system: K-562 leukemia
# Assay: NCI tumour cell line growth inhibition, 48 h
row,SMILES,TGI [µM]
1,COC(=O)C1Cc2c([nH]c3ccccc23)C(C2CCCCC2)N1 (stereo not drawn),> 100
2,CCN(C(=N)C#N)c1ccccc1,> 100
3,O=C1[C@@H]2C(c3cccc([N+](=O)[O-])c3)=NO[C@@H]2C(=O)N1c1ccc(Cc2ccc(N3C(=O)[C@H]4C(c5cccc([N+](=O)[O-])c5)=NO[C@H]4C3=O)cc2)cc1,> 100
4,O=C(NO)C(=O)Nc1cc(Cl)ccc1Cl,> 100

# Test system: KM12 colon
# Assay: NCI tumour cell line growth inhibition, 48 h
row,SMILES,TGI [µM]
1,COC(=O)C1Cc2c([nH]c3ccccc23)C(C2CCCCC2)N1 (stereo not drawn),> 100
2,CCN(C(=N)C#N)c1ccccc1,> 100
3,O=C(NO)C(=O)Nc1cc(Cl)ccc1Cl,> 100

# Test system: KM20L2 colon
# Assay: NCI tumour cell line growth inhibition, 48 h
row,SMILES,TGI [µM]
1,COC(=O)C1Cc2c([nH]c3ccccc23)C(C2CCCCC2)N1 (stereo not drawn),> 100
2,CCN(C(=N)C#N)c1ccccc1,> 100
3,O=C1[C@@H]2C(c3cccc([N+](=O)[O-])c3)=NO[C@@H]2C(=O)N1c1ccc(Cc2ccc(N3C(=O)[C@H]4C(c5cccc([N+](=O)[O-])c5)=NO[C@H]4C3=O)cc2)cc1,> 100
4,O=C(NO)C(=O)Nc1cc(Cl)ccc1Cl,> 100

# Test system: LOX IMVI melanoma
# Assay: NCI tumour cell line growth inhibition, 48 h
row,SMILES,TGI [µM]
1,COC(=O)C1Cc2c([nH]c3ccccc23)C(C2CCCCC2)N1 (stereo not drawn),> 100
2,CCN(C(=N)C#N)c1ccccc1,> 100
3,O=C(NO)C(=O)Nc1cc(Cl)ccc1Cl,> 100

# Test system: LXFL 529 NSCLC
# Assay: NCI tumour cell line growth inhibition, 48 h
row,SMILES,TGI [µM]
1,COC(=O)C1Cc2c([nH]c3ccccc23)C(C2CCCCC2)N1 (stereo not drawn),> 100
2,CCN(C(=N)C#N)c1ccccc1,> 100
3,O=C1[C@@H]2C(c3cccc([N+](=O)[O-])c3)=NO[C@@H]2C(=O)N1c1ccc(Cc2ccc(N3C(=O)[C@H]4C(c5cccc([N+](=O)[O-])c5)=NO[C@H]4C3=O)cc2)cc1,> 100
4,O=C(NO)C(=O)Nc1cc(Cl)ccc1Cl,> 100

# Test system: M14 melanoma
# Assay: NCI tumour cell line growth inhibition, 48 h
row,SMILES,TGI [µM]
1,COC(=O)C1Cc2c([nH]c3ccccc23)C(C2CCCCC2)N1 (stereo not drawn),> 100
2,CCN(C(=N)C#N)c1ccccc1,> 100
3,O=C1[C@@H]2C(c3cccc([N+](=O)[O-])c3)=NO[C@@H]2C(=O)N1c1ccc(Cc2ccc(N3C(=O)[C@H]4C(c5cccc([N+](=O)[O-])c5)=NO[C@H]4C3=O)cc2)cc1,> 100
4,O=C(NO)C(=O)Nc1cc(Cl)ccc1Cl,> 100

# Test system: M19-MEL melanoma
# Assay: NCI tumour cell line growth inhibition, 48 h
row,SMILES,TGI [µM]
1,COC(=O)C1Cc2c([nH]c3ccccc23)C(C2CCCCC2)N1 (stereo not drawn),> 100
2,CCN(C(=N)C#N)c1ccccc1,> 95.4
3,O=C1[C@@H]2C(c3cccc([N+](=O)[O-])c3)=NO[C@@H]2C(=O)N1c1ccc(Cc2ccc(N3C(=O)[C@H]4C(c5cccc([N+](=O)[O-])c5)=NO[C@H]4C3=O)cc2)cc1,> 100
4,O=C(NO)C(=O)Nc1cc(Cl)ccc1Cl,> 100

# Test system: MALME-3M melanoma
# Assay: NCI tumour cell line growth inhibition, 48 h
row,SMILES,TGI [µM]
1,COC(=O)C1Cc2c([nH]c3ccccc23)C(C2CCCCC2)N1 (stereo not drawn),> 100
2,CCN(C(=N)C#N)c1ccccc1,> 100
3,O=C1[C@@H]2C(c3cccc([N+](=O)[O-])c3)=NO[C@@H]2C(=O)N1c1ccc(Cc2ccc(N3C(=O)[C@H]4C(c5cccc([N+](=O)[O-])c5)=NO[C@H]4C3=O)cc2)cc1,> 100
4,O=C(NO)C(=O)Nc1cc(Cl)ccc1Cl,> 100

# Test system: MOLT-4 leukemia
# Assay: NCI tumour cell line growth inhibition, 48 h
row,SMILES,TGI [µM]
1,COC(=O)C1Cc2c([nH]c3ccccc23)C(C2CCCCC2)N1 (stereo not drawn),> 100
2,CCN(C(=N)C#N)c1ccccc1,> 100
